Experimental data reported in patent publication US20250144054A1, “SMALL MOLECULE STAT3 INHIBITOR FOR TREATING TRIPLE NEGATIVE BREAST CANCER” (UNIVERSITY OF MARYLAND, BALTIMORE, priority 2022, published 2025).
“And” between values parts separate entries of the source, which are not always exact repeats. Equal entries are not always repeated.

Test system: STAT3
Assay: Western blot of P-STAT3 (Y705), STAT3, Cyclin D1, Cleaved Caspase-3 in MDA-MB-231 cells
Format: cell-based, human
Settings: MDA-MB-231, overnight
Description: (A) MDA-MB-231, SUM159, and 4T1 cell lines were treated with DMSO or LLL12B overnight and the expression levels of P-STAT3 (Y705), STAT3, Cyclin D1, and Cleaved Caspase-3 were analyzed by Western blot. GAPDH served as a protein loading control. (B) MDA-MB-231 cells were treated with DMSO or C188-9 overnight and the expression levels of P-STAT3 (Y705), STAT3, Cyclin D1, and Cleaved Caspase-3 were analyzed by Western blot. (C) MDA-MB-231, SUM159, and 4T1 cells were seeded in a 96-well plate and treated with DMSO or LLL12B for 5 hours and a Caspase-3/7 Fluorescence Assay Kit was used to detect the activation of caspase-3/7. (D) MDA-MB-231, SUM159, and 4T1 cell lines were treated with DMSO or LLL12B for 8-12 hours, and flow cytometry was performed to analyze annexin V and PI staining. The quantification of apoptotic cells was shown in the right panel. ** P<0.01, *** P<0.001 and ****P<0.0001.
SiRNA and transfection. STAT3 siRNA and Negative Control siRNA (Cell Signaling Technology, Danvers, MA, USA) were used to knock down STAT3 in MDA-MB-231, SUM159, and 4T1 cell lines. Cells were transfected with STAT3 siRNA or Negative Control siRNA using Lipofectamine RNAiMAX (Invitrogen, Carlsbad, CA, USA) according to the manufacturer's instructions. After 72 hours, cell viability was examined by MTT cell viability assay, and the transfection efficiency was examined by western blot.
Western blot. Cells were collected and total protein was extracted using cell lysis buffer (Cell Signaling Technology, Danvers, MA, USA). Protein concentration was determined using the Pierce BCA Protein Assay Kit (Thermo Fisher Scientific, Waltham, MA, USA) according to the manufacturer's instructions. Equal amounts of protein were separated by 10% SDS-PAGE gels and transferred to PVDF membranes. Membranes were blocked in 5% non-fat milk at room temperature and probed with specific antibodies P-STAT3 (Y705), STAT3, Cyclin D1, Cleaved Caspase-3, P-STAT1 (Y701), STAT1, P-ERK, ERK or GAPDH (1:1000, Cell Signaling Technology, Danvers, MA, USA) at 4° C. overnight. The blots were visualized using SuperSignal™ West Femto Maximum Sensitivity Substrate (Thermo Fisher Scientific, Waltham, MA, USA) and an Amersham Imager 680 (GE Healthcare Life Sciences, Marlborough, MA, USA) after incubating with horseradish peroxidase (HRP)-conjugated anti-rabbit secondary antibody (1:5000, Cell Signaling Technology, Danvers, MA, USA).

COc1ccc(S(=O)(=O)Nc2cc(-c3c(O)ccc4ccccc34)c(O)c3ccccc23)cc1 [C188-9, reference compound]
concentration that inhibited P-STAT3 and Cyclin D1 in Western blot: 25 µM and 50 µM
